# Results from patent publication US9051320B1, “Methods for the treatment of metabolic disorders by a selective small molecule autotaxin inhibitor” (PharmAkea, Inc., priority 2014, dated 2015).
# Structures can show the parent of a compound that is named as a salt. Where two headings read alike, the source gives them in different places.
# Experiments:
# [1] = test system: mice fed a high fat diet (HFD); assay: Glucose tolerance test in mice fed a high fat diet; format: in vivo, C57B16/J male mice; settings: for total blood glucose AUC: after i.p. 1 g/kg glucose; for baseline glucose (fasting blood glucose): sodium salt
# Method: C57B16/J male mice were fed a normal diet until 9-10 weeks of age. […] For determination of blood glucose, mice were administered test compound orally in 0.5% methocel once or twice daily for several days prior to the glucose challenge. Compounds were administered as a sodium salt. On the day of the glucose tolerance test (GTT) mice were fasted for 6-8 hours and a last dose of test compound administered orally 1-3 hours before the intraperitoneal (i.p.) injection of 1 g/kg D-glucose (Sigma). Blood from the tail vein was sampled before the glucose load (baseline glucose) and every 15-30 min over the next 120 min after the glucose challenge to monitor blood glucose concentration. Blood glucose was quantified using a glucose meter (Accu-Chek, Roche Diagnostics or AlphaTRAK, Abbott Animal Health) and plotted vs. time. Total blood glucose area under the curve (AUC) after the i.p. glucose challenge was calculated from the time plot using GraphPad Prism6.
# [2] = test system: mice fed a normal diet or a high fat diet; settings: cited from earlier work; for glucose tolerance: injection
# human autotaxin (ATX) = molecular target: T1, human autotaxin (ATX) (Homo sapiens, UniProt Q13822); assay: Human autotaxin assay (choline release from LPC, Hep3B conditioned media); format: biochemical; settings: LPC 14:0 100 uM
# T1 construct: ATX activity is assayed in concentrated conditioned media from Hep3B human hepatocellular carcinoma cells; endogenous in cells; host or cells: Hep3B human hepatocellular carcinoma cells (20-fold concentrated conditioned medium)
# Method: ATX activity is assayed in concentrated conditioned media from Hep3B human hepatocellular carcinoma cells by measuring the amount of choline released from the substrate, lysophosphatidylcholine (LPC) as it is cleaved to LPA. Conditioned media is collected from confluent Hep3B cells and concentrated 20-fold using Centriprep-30 filter devices (Millipore).
# [3] = chronic treatment, mice fed a high fat diet
# [4] = 30 mg/kg oral twice daily for two days and once on the day of sampling
# [5] = 30 mg/kg oral twice daily for two days prior to sampling and once on the day of sampling
structure (smiles),measurement,setting,value
"CCCn1cc(-n2c(Cl)c(Sc3cccc(C(=O)O)c3F)c3ccc(Cl)c(F)c32)cn1 [Compound C, 3-((2,6-dichloro-7-fluoro-1-(1-propyl-1H-pyrazol-4-yl)-1H-indol-3-yl)thio)-2-fluorobenzoic acid]",total blood glucose AUC,[1]; 15 mg/kg oral twice daily for two days and once on the day of sampling,decrease
same,baseline glucose (fasting blood glucose),[1]; 15 mg/kg oral twice daily for two days prior to sampling and once on the day of sampling,decrease
"Cc1c(Sc2cccc(C(=O)O)c2F)c2ccc(Cl)c(F)c2n1CC(=O)N1CCC(O)(C(F)(F)F)C1 (single isomer, unassigned) [Compound E]",baseline glucose (fasting blood glucose),[1]; 30 mg/kg oral once daily for 5 days prior to sampling,decrease
Cc1noc(-c2ccc(CSCCC(=O)O)cc2)c1NC(=O)OC(C)c1ccccc1Cl (centres unmarked) [Ki16425],capacity of a muscle to oxidize glucose,[2]; [3],increases
same,fasting insulin levels,[2]; [3],improves
same,insulin sensitivity,[2]; [3],improves
same,liver glycogen storage,[2]; [3],increases
same,glucose tolerance,[2]; mice fed a high fat diet,does significantly improve
same,glucose tolerance,[2]; mice fed a normal diet,does not significantly improve
"O=C(O)CCN1C(=O)[C@@H]2Cc3c(n(Cc4ccc(F)cc4)c4ccccc34)CN2C1=O [Compound A, (S)-3-(6-(4-fluorobenzyl)-1,3-dioxo-5,6,11,11a-tetrahydro-1H-imidazo [1′,5′:1,6]pyrido[3,4-b]indol-2(3H)-yl)propanoic acid]",total blood glucose AUC,[1]; [4],decrease
same,baseline glucose (fasting blood glucose),[1]; [5],decrease
"CCn1cc(-n2c(C3CC3)c(Sc3cccc(C(=O)O)n3)c3ccc(Cl)c(F)c32)cn1 [Compound D, 6-((6-chloro-2-cyclopropyl-1-(1-ethyl-1H-pyrazol-4-yl)-7-fluoro-1H-indol-3-yl)thio)picolinic acid sodium salt]",total blood glucose AUC,[1]; [4],decrease
same,baseline glucose (fasting blood glucose),[1]; [5],decrease
same,IC50,human autotaxin (ATX),< 0.5 µM
